Source: patent publication US20180303807A1, “ANDROGEN RECEPTOR LIGANDS” (DUKE UNIVERSITY, priority 2015, published 2018)

Tests used:
Type in all cases: cell-based
[1] = system: CV1 cells; assay: Toxicity of test compound in the CV1 reporter gene assay (Renilla-Luc)
[2] = system: AR; assay: Real-time PCR of AR target gene transcription in LNCaP-AR (AR overexpressing) cells, CRPC model; parameters: key to B5 = Relative antagonist activity (plus 0.1 nM R1881) of test compounds (20 μM) in AR overexpressing LNCaP cells (NKX3.1 AR target gene) / B7 = Relative antagonist activity (plus 0.1 nM R1881) of test compounds (20 μM) in AR overexpressing LNCaP cells (PSA AR target gene): a score of 1 indicates higher antagonist efficacy (highly desired activity) than benchmark compound enzalutamide; a score of 2 indicates equal antagonist efficacy to enzalutamide (desirable); a score of 3 indicates antagonist efficacy between enzalutamide and bicalutamide (less desirable activity); a score of 4 indicates antagonist efficacy equal to bicalutamide (liability); a score of 5 indicates antagonist efficacy worse than bicalutamide (liability); key to B4 = Relative agonist activity (no R1881) of test compounds (20 μM) in AR overexpressing LNCaP cells (NKX3.1 AR target gene) / B6 Relative agonist activity (no R1881) of test compounds (20 μM) in AR overexpressing LNCaP cells (PSA AR target gene): a score of 1 indicates less agonism (highly desired activity) than benchmark compound enzalutamide; a score of 2 indicates equal agonism to enzalutamide (desirable); a score of 3 indicates agonism between enzalutamide and bicalutamide (less desirable activity); a score of 4 indicates equal agonism to bicalutamide (liability); a score of 5 indicates higher agonism than bicalutamide (liability); details: 20 μM, score vs enzalutamide/bicalutamide; for B4 = Relative agonist activity (no R1881) of test compounds (20 μM) in AR overexpressing LNCaP cells (NKX3.1 AR target gene): no R1881, NKX3.1 gene; for B5 = Relative antagonist activity (plus 0.1 nM R1881) of test compounds (20 μM) in AR overexpressing LNCaP cells (NKX3.1 AR target gene): plus 0.1 nM R1881, NKX3.1 gene; for B7 = Relative antagonist activity (plus 0.1 nM R1881) of test compounds (20 μM) in AR overexpressing LNCaP cells (PSA AR target gene): plus 0.1 nM R1881, PSA gene
Protocol: Real-Time PCR (CRPC model of AR overexpressing prostate cancer cells, Table 2, B4-B7). LNCaP-AR (AR overexpressing cells) cells were seeded in 12-well plates in RPMI 1640 (8% charcoal-stripped fetal calf serum (CFS)). […] AR target gene transcription (PSA, NKX3.1, FKBP5) was assessed by realtime PCR.
For B4-B7, scoring system is based on the relative AR target gene agonist/antagonist activity of test compounds when compared to benchmark compounds enzalutamide or bicalutamide. […] The lack of agonist activity is desirable for therapies intended to treat CRPC. For B4 and B6, a score of 1 indicates less agonism (highly desired activity) than benchmark compound enzalutamide, a score of 2 indicates equal agonism to enzalutamide (desirable), a score of 3 indicates agonism between enzalutamide and bicalutamide (less desirable activity), a score of 4 indicates equal agonism to bicalutamide (liability), and a score of 5 indicates higher agonism than bicalutamide (liability). For B5 and B7 a score of 1 indicates higher antagonist efficacy (highly desired activity) than benchmark compound enzalutamide, a score of 2 indicates equal antagonist efficacy to enzalutamide (desirable), a score of 3 indicates antagonist efficacy between enzalutamide and bicalutamide (less desirable activity), a score of 4 indicates antagonist efficacy equal to bicalutamide (liability), and a score of 5 indicates antagonist efficacy worse than bicalutamide (liability) For B9, Compounds that degrade AR (greater than 50% degradation at 10 μM) are indicated.

[3] = target: T1, AR (Homo sapiens, UniProt P10275, T878A); assay: In Cell Western AR degradation assay in LNCaP cells; details: 18 hrs, greater than 50% degradation at 10 μM (method says 20 μM)
T1 construct: endogenous in cells; host or cells: LNCaP cells
T1 sequence (P10275 1-920 T878A): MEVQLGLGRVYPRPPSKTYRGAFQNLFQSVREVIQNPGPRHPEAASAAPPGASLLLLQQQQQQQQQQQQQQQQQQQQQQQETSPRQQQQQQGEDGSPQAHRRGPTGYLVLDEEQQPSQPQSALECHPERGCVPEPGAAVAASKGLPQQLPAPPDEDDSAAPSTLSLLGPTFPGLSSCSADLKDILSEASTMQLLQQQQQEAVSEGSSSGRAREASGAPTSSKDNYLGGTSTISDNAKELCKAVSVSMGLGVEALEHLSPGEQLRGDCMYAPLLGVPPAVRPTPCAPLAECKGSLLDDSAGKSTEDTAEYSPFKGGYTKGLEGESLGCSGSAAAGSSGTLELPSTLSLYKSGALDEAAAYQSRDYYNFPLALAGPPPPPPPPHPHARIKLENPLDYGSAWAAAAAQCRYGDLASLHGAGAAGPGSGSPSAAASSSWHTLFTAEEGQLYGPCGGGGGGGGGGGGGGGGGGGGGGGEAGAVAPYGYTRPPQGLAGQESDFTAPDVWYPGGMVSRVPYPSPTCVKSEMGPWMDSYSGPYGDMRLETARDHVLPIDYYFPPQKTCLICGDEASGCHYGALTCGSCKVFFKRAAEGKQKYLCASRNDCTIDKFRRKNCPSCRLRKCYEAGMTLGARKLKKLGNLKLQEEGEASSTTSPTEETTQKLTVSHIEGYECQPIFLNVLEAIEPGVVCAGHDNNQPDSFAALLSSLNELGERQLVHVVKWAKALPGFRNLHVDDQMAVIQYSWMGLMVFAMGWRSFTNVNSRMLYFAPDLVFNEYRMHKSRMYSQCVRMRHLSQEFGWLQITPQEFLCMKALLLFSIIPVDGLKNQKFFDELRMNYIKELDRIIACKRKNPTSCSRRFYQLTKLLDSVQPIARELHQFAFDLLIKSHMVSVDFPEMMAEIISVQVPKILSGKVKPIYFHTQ
Procedure, shortened: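 After 48 h plating in RPMI with 8% CFS, LNCaP cells were exposed to 20 μM test compound for 18 h, fixed with 3.7% formaldehyde and permeabilized. AR was detected with anti-AR N20 antibody and an infrared secondary, imaged by LI-COR Odyssey and normalized to DRAQ5 DNA stain.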

| Structure (SMILES) | B2 = % Toxicity of test compound (20 μM) [1] | B3 = % Toxicity of test compound (60 μM) [1] | B4 = Relative agonist activity (no R1881) of test compounds (20 μM) in AR overexpressing LNCaP cells (NKX3.1 AR target gene) [2] | B6 Relative agonist activity (no R1881) of test compounds (20 μM) in AR overexpressing LNCaP cells (PSA AR target gene) [2] | B5 = Relative antagonist activity (plus 0.1 nM R1881) of test compounds (20 μM) in AR overexpressing LNCaP cells (NKX3.1 AR target gene) [2] | B7 = Relative antagonist activity (plus 0.1 nM R1881) of test compounds (20 μM) in AR overexpressing LNCaP cells (PSA AR target gene) [2] | B9 = AR degradation in LNCaP cells (In-Cell Western) [3] |
| --- | --- | --- | --- | --- | --- | --- | --- |
| O=C1CCCC2=C1C(c1ccc([N+](=O)[O-])cc1)c1c(ccc3ccccc13)N2 (stereo not drawn) [Compound A1, 12-(4-nitrophenyl)-8,9,10,12-tetrahydrobenzo[a]acridin-11(7H)-one] | 32% | 87% | 1 | 1 | 2 | 2 | Degrader (Compounds that degrade AR (greater than 50% degradation at 10 μM) are indicated) |
| CC1CC(=O)C2=C(C1)Nc1ccc3ccccc3c1C2c1ccc(F)cc1 (stereo not drawn) [Compound A4] | 0% | 51% | 1 | 1 | 1 | 1 | Degrader (Compounds that degrade AR (greater than 50% degradation at 10 μM) are indicated) |
| O=C1CCCC2=C1Nc1ccc3ccccc3c1C2c1ccc([N+](=O)[O-])cc1 (stereo not drawn) [Compound A10] | 17% | 88% | 2 | 1 | 2 | 1 | Degrader (Compounds that degrade AR (greater than 50% degradation at 10 μM) are indicated) |
